According to patent US20250230159A1, “FUSED HETEROCYCLIC COMPOUNDS AS MODULATORS OF RAS SIGNALLING” (Shenzhen Ionova Life Science Co., Ltd., priority 2022, published 2025):

The compounds below were run against KRAS-G12C/SOS1 interaction (Homo sapiens (Human), UniProt Q07889) (assay: Protein-Protein Interaction (PPI) assay, SOS1-KRAS binding assay kit (HTRF)). Conditions: not given.
Protocol: This Example illustrates that exemplary compounds of the present invention blockade the interaction of SOS1 to KRAS protein.
The ability of a compound of Formula (I) to block the interaction of SOS1 to KRAS was measured using a SOS1-KRAS binding assay kit (CAT #63ADK000CB16PEG, Cisbio). Utilizing HTRF (Homogeneous Time-resolved Fluorescence) technology, the assay enables simple and rapid characterization of compound and antibody blockers in a high throughput format. The interaction between Tag1-SOS1 and Tag2-KRAS-G12C is detected by using anti-Tag1-Terbium antibody (HTRF donor) and anti-Tag2-XL665 antibody (HTRF acceptor). When the donor and acceptor antibodies are brought into close proximity due to SOS1 and KRAS-G12C binding, excitation of the donor antibody triggers fluorescent resonance energy transfer (FRET) towards the acceptor antibody, which in turn emits specifically at 665 nm. This specific signal is directly proportional to the extent of KRAS-G12C/SOS1 interaction.
The assay was carried according to the manufacturer's instructions. Compounds at an initial concentration of 10 mM in DMSO were first serially diluted on a 384-well plate using assay buffer at a ratio of 1:3 for a total of 9 concentrations with each of a volume of 20 μL. Blank buffer was included as the negative control. The final compound solution was in the buffer solution with 1% DMSO. Then, in each well of a 384-well plate, a solution of 2 μL compound solution, 4 μL tagged SOS1 and KRAS (G12C) protein stocks, respectively, and 10 μM GTP was incubated for 15 min. 10 μL mixture of […] antibody and anti-Tag1-Terbium antibody was introduced to each individual well. After 2 hours incubation at room temperature, fluorescence readout was measured with a Pelkin Elmer multiple plate reader VICTOR Nivo.
Excitation was from over a range of 245-395 nm, and emission from the donor (emission 1) was detected at […] and emission from the acceptor (emission 2) was detected at (606.5-623.5) nm. The HTRF ratio was calculated using the formula: (emission 1 @665 nm/emission 2 @620 nm)×10000. Thus, compounds blocking KRAS-G12C/SOS1 interaction will cause a reduction in HTRF signal ratio. The IC50 values were then calculated with the Graph pad Prism software.

Chain of KRAS-G12C/SOS1 interaction (Q07889 whole entry, stated change not applied): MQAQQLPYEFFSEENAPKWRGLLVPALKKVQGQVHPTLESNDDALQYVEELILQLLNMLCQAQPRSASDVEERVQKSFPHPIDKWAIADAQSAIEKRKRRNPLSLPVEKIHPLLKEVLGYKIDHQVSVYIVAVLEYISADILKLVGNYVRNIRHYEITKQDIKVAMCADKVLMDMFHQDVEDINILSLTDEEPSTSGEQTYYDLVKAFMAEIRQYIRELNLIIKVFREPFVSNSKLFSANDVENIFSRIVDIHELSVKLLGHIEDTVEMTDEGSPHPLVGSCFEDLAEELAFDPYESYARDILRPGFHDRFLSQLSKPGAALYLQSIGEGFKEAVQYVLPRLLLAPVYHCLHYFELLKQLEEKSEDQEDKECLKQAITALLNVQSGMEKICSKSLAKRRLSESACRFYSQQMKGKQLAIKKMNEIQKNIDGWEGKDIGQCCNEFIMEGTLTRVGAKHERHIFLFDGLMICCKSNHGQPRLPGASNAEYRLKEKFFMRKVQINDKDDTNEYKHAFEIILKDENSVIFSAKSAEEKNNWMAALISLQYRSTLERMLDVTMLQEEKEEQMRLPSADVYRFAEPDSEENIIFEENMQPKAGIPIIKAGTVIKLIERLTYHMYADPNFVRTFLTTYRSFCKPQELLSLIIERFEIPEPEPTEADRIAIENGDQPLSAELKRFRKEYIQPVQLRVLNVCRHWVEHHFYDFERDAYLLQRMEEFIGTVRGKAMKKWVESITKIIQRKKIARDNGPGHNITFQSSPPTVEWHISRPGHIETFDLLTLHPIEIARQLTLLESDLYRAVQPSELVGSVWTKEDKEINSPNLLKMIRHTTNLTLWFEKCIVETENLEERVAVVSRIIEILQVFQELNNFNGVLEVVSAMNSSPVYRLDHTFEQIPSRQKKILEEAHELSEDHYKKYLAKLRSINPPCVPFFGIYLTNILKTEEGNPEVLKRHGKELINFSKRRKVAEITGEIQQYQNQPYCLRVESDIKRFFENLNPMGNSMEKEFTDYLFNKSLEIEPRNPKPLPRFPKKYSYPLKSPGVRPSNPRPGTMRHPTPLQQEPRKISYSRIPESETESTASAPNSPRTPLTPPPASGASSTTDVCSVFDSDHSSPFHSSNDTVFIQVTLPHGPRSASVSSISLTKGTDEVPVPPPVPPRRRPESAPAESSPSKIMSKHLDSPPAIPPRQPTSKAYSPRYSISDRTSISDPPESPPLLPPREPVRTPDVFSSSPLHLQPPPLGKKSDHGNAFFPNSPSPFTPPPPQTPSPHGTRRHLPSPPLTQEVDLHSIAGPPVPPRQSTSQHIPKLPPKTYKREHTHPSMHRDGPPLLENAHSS

Compound | IC50
CCOC(=O)c1cc2c(N[C@H](C)c3cccc(C(F)F)c3F)nc(C)nc2n2cnnc12 [Example 53] | > 100 nM
Cc1nc(N[C@H](C)c2cccc(C(F)F)c2F)c2cc(C(=O)N(C(C)C)C(C)C)c3nnnn3c2n1 [Example 56] | > 100 nM
Cc1nc(N[C@H](C)c2cccc(C(F)F)c2F)c2cc(C(=O)NC(C)(C)C)c3nnnn3c2n1 [Example 57] | > 100 nM
Cc1nc(N[C@H](C)c2cccc(C(F)F)c2F)c2cc(C(=O)N3C4COCC3C4)c3nnnn3c2n1 [Example 65] | > 100 nM
Cc1nc(N[C@H](C)c2cccc(C(F)F)c2F)c2cc(N3CCC(F)(F)CC3)c3nncn3c2n1 [Example 75] | > 100 nM
Cc1nc(N[C@H](C)c2cccc(C(F)F)c2F)c2cc(N3CC(O)C3)c3nncn3c2n1 [Example 77] | > 100 nM
C[C@@H](Nc1ncnc2c1cc(N1C3COCC1C3)c1nncn12)c1cccc(C(F)F)c1F [Example 80] | > 100 nM
C[C@@H](Nc1ncnc2c1cc(N1CC(C#N)C1)c1nncn12)c1cccc(C(F)F)c1F [Example 81] | > 100 nM
CC(=O)N1CC2(C1)CN(c1cc3c(N[C@H](C)c4cccc(C(F)F)c4F)ncnc3n3cnnc13)C2 [Example 82] | > 100 nM
Cc1c([C@@H](C)Nc2ncnc3c2cc(N2CCOCC2)c2nncn23)cccc1C(F)(F)F [Example 83] | > 100 nM
C[C@@H](Nc1ncnc2c1cc(N1CCOCC1)c1nncn12)c1cccc(C(F)(F)F)c1F [Example 84] | > 100 nM
Cc1nc(N[C@H](C)c2cc(N)cc(C(F)(F)F)c2)c2cc(N3CCOCC3)c3nnc(C)n3c2n1 [Example 87] | > 100 nM
C[C@@H](Nc1ncnc2c1cc(NC1CCS(=O)(=O)CC1)c1nncn12)c1cccc(C(F)F)c1F [Example 89] | > 100 nM
CC(=O)N1CC=C(c2cc3c(N[C@H](C)c4cccc(C(F)F)c4F)nc(C)nc3n3cnnc23)CC1(C)C [Example 102] | > 100 nM
CC(=O)N1CC=C(c2cc3c(N[C@H](C)c4cccc(C(F)F)c4F)nc(C)nc3n3cnnc23)C1 [Example 103] | > 100 nM

Now from value to compound:

IC50 | Compound
> 100 nM | Cc1nc(N[C@H](C)c2cccc(C(F)F)c2F)c2cc(C(=O)N(C(C)C)C(C)C)c3ncnn3c2n1 [Example 7]
> 100 nM | Cc1nc(N[C@H](C)c2cccc(C(F)F)c2F)c2cc(C(=O)N(C)C3COC3)c3ncnn3c2n1 [Example 8]
> 100 nM | CNC(=O)c1cc2c(N[C@H](C)c3cccc(C(F)F)c3F)nc(C)nc2n2ncnc12 [Example 9]
> 100 nM | Cc1nc(N[C@H](C)c2cccc(C(F)F)c2F)c2cc(C(=O)NC(C)(C)C)c3ncnn3c2n1 [Example 10]
> 100 nM | Cc1nc(N[C@H](C)c2cccc(C(F)F)c2F)c2cc(C(=O)N3CCOC[C@H]3C)c3ncnn3c2n1 [Example 15]
> 100 nM | Cc1nc(N[C@H](C)c2cccc(C(F)F)c2F)c2cc(C(=O)N3CC4(CCC4)C3)c3ncnn3c2n1 [Example 28]

Same assay, conditions: read-out: PPI Assay IC50

Compound | IC50
C[C@@H](Nc1ncnc2c1cc(C(=O)N(C)C)c1ncnn12)c1cccc(C(F)F)c1F [Example 40] | < 100 nM
C[C@@H](Nc1ncnc2c1cc(C(=O)N1CCC13COC3)c1ncnn12)c1cccc(C(F)F)c1F [Example 43] | < 100 nM
C[C@@H](Nc1ncnc2c1cc(C(=O)N1CCCC13CCOC3)c1ncnn12)c1cccc(C(F)F)c1F (some centres unmarked) [Example 44] | < 100 nM
C[C@@H](Nc1ncnc2c1cc(C(=O)N1CCC13CNC3)c1ncnn12)c1cccc(C(F)F)c1F [Example 45] | < 100 nM
C[C@@H](Nc1ncnc2c1cc(C(=O)N1C3COCC1C3)c1ncnn12)c1cccc(C(F)F)c1F [Example 46] | < 100 nM
C[C@@H](Nc1ncnc2c1cc(C(=O)N1C3CCN(C)CC1C3)c1ncnn12)c1cccc(C(F)F)c1F (some centres unmarked) [Example 48] | < 100 nM
C[C@@H](Nc1ncnc2c1cc(C(=O)N1C3CCC1COC3)c1ncnn12)c1cccc(C(F)F)c1F [Example 49] | < 100 nM
Cc1nc(N[C@H](C)c2cccc(C(F)F)c2F)c2cc(C(=O)N3C4CCC3COC4)c3nnnn3c2n1 [Example 64] | < 100 nM
C[C@H](O)C(=O)N1CCC(c2cc3c(N[C@H](C)c4cccc(C(F)F)c4F)ncnc3n3cnnc23)CC1 [Example 72] | < 100 nM
CC(=O)N1CC2(C1)CN(c1cc3c(N[C@H](C)c4cccc(C(F)F)c4F)nc(C)nc3n3cnnc13)C2 [Example 78] | < 100 nM
Cc1nc(N[C@H](C)c2cccc(C(F)F)c2F)c2cc([C@H]3CC[C@@H](O)CC3)c3nncn3c2n1 [Example 90-P1, Cis-4-(4-(((R)-1-(3-(difluoromethyl)-2-fluorophenyl)ethyl)amino)-2-methyl-[1,2,4]triazolo[4′,3′:1,6]pyrido[2,3-d]pyrimidin-6-yl)cyclohexan-1-ol] | < 100 nM
Cc1nc(N[C@H](C)c2cccc(C(F)F)c2F)c2cc([C@H]3CC[C@H](O)CC3)c3nncn3c2n1 [Example 90-P2, trans-4-(4-(((R)-1-(3-(difluoromethyl)-2-fluorophenyl)ethyl)amino)-2-methyl-[1,2,4]triazolo[4′,3′:1,6]pyrido[2,3-d]pyrimidin-6-yl)cyclohexan-1-ol] | < 100 nM
Cc1nc(N[C@H](C)c2cccc(C(F)F)c2F)c2cc(N3CC(C(=O)N(C)C)C3)c3nnnn3c2n1 [Example 94] | < 100 nM
CC(=O)N1CC=C(c2cc3c(N[C@H](C)c4cccc(C(F)F)c4F)nc(C)nc3n3c(C)nnc23)CC1 [Example 104] | < 100 nM
C[C@@H](Nc1ncnc2c1cc(C1(O)CCS(=O)(=O)CC1)c1nncn12)c1cccc(C(F)F)c1F [Example 110] | < 100 nM
CC(=O)N1CCC(O)(c2cc3c(N[C@H](C)c4cccc(C(F)F)c4F)nc(C)nc3n3c(C)nnc23)CC1 [Example 111] | < 100 nM
COC1(c2cc3c(N[C@H](C)c4cc(N)cc(C(F)(F)F)c4)ncnc3n3nnnc23)CCN(C(C)=O)CC1 [Example 126] | < 100 nM
CC(=O)N1CCC(C)(c2cc3c(N[C@H](C)c4cccc(C(F)F)c4F)ncnc3n3cnnc23)CC1 [Example 128] | < 100 nM
[2H]C([2H])([2H])OC1(c2cc3c(N[C@H](C)c4cccc(C(F)F)c4F)ncnc3n3cnnc23)CCN(C(C)=O)CC1 [Example 133, (R)-1-(4-(4-((1-(3-(difluoromethyl)-2-fluorophenyl)ethyl)amino)-[1,2,4]triazolo[4′,3′:1,6]pyrido[2,3-d]pyrimidin-6-yl)-4-(methoxy-d3)piperidin-1-yl)ethan-1-one] | < 100 nM

Second part, the compound after the results:

IC50 | Compound
< 100 nM | Cc1nc(N[C@H](C)c2cccc(C(F)F)c2F)c2cc(C(=O)N3CCOC[C@@H]3C)c3ncnn3c2n1 [Example 12]
< 100 nM | Cc1nc(N[C@H](C)c2cccc(C(F)F)c2F)c2cc(C(=O)N3CCOCC3(C)C)c3ncnn3c2n1 [Example 14]
< 100 nM | Cc1nc(N[C@H](C)c2cccc(C(F)F)c2F)c2cc(C(=O)N3CCCCC3)c3ncnn3c2n1 [Example 16]
< 100 nM | Cc1nc(N[C@H](C)c2cccc(C(F)F)c2F)c2cc(C(=O)N3CC(O)C3)c3ncnn3c2n1 [Example 25]
< 100 nM | CC(=O)N1CC2(CCN2C(=O)c2cc3c(N[C@H](C)c4cccc(C(F)F)c4F)nc(C)nc3n3ncnc23)C1 [Example 30]
< 100 nM | Cc1nc(N[C@H](C)c2cccc(C(F)F)c2F)c2cc(C(=O)N3CCCC34CCCC4)c3ncnn3c2n1 [Example 32]
< 100 nM | Cc1nc(N[C@H](C)c2cccc(C(F)F)c2F)c2cc(C(=O)N3CCC4(CCOC4)C3)c3ncnn3c2n1 (some centres unmarked) [Example 34]
< 100 nM | C[C@@H](Nc1ncnc2c1cc(C(=O)N1CCN(CCS(C)(=O)=O)CC1)c1ncnn12)c1cccc(C(F)F)c1F [Example 41]
< 100 nM | Cc1nc(N[C@H](C)c2cccc(C(F)F)c2F)c2cc(C(=O)N3CCCC34CCOC4)c3nncn3c2n1 (some centres unmarked) [Example 52]
< 100 nM | Cc1nc(N[C@H](C)c2cccc(C(F)F)c2F)c2cc(C(=O)N3CCOCC3)c3nccn3c2n1 [Example 54, (R)-(4-((1-(3-(difluoromethyl)-2-fluorophenyl)ethyl)amino)-2-methylimidazo[1′,2′:1,6]pyrido[2,3-d]pyrimidin-6-yl)(morpholino)methanone]
< 100 nM | Cc1nc(N[C@H](C)c2cccc(C(F)F)c2F)c2cc(C(=O)N3CCN(CCS(C)(=O)=O)CC3)c3nnnn3c2n1 [Example 59]
< 100 nM | CC(=O)N1CC2(CCN2C(=O)c2cc3c(N[C@H](C)c4cccc(C(F)F)c4F)nc(C)nc3n3nnnc23)C1 [Example 61]
< 100 nM | Cc1nc(N[C@H](C)c2cccc(C(F)F)c2F)c2cc(C(=O)N3CCC34COC4)c3nnnn3c2n1 [Example 63]
